Measurements as given in US20240207302A1, “ANTIVIRAL COMPOUNDS, METHODS FOR THE MANUFACTURING OF COMPOUNDS, ANTIVIRAL PHARMACEUTICAL COMPOSITION, USE OF THE COMPOUNDS AND METHOD FOR THE ORAL TREATMENT OF CORONAVIRUS INFECTION AND RELATED DISEASES THEREOF” (priority 2021, published 2024).
Where two headings read alike, the source gives them in different places. Marks after values point to notes of the source that are not given here.

How the values were obtained:
[1] = Repeated dose 28-day oral toxicity study; type: in vivo, mice
Method: FIG. 10A and 10B. […] Body weight gain in weeks (A) in males and (B) in females by 4 weeks. […] Body weight was measured once a week.
These experiments were conducted in compliance with the GLP principles. Morbidity, mortality, body weight in male (FIG. 10A) and female (FIG. 10B), food consumption as well as general and detailed clinical signs were evaluated. In the last week, urine samples from all animals were collected for analysis. At necropsy, blood samples were collected for hematological, biochemical and coagulation analyses, followed by tissue and organ collection for macroscopic and histopathological analyses.

SARS-COV-2 VoC gamma = type: in vivo, mice
SARS-COV-2 viral RNA = test: Immunoprecipitation of viral RNA with anti-kinetin antibody, RT-PCR; type: cell-based; conditions: SARS-COV-2-infected calu-3 cells
[2] = female mice, 10 mg/kg oral once daily for 28 days
[3] = female mice, 80 mg/kg oral once daily for 28 days
[4] = female mice, 250 mg/kg oral once daily for 28 days
[5] = female mice, 10 mg/kg daily, 28 days
[6] = female mice, 80 mg/kg daily, 28 days
[7] = female mice, 250 mg/kg daily, 28 days
[8] = male mice, 10 mg/kg daily, 28 days
[9] = male mice, 80 mg/kg daily, 28 days
[10] = male mice, 250 mg/kg daily, 28 days
[11] = 140 mg/kg/day alone and in combination with DTG
[12] = 140 mg/kg/day, vs untreated animals

c1coc(CNc2ncnc3[nH]cnc23)c1 [MB-905, kinetin]
NOAEL at 28 days ([1]; both sexes, CD1, mouse, in vivo, mice, oral, 28-day study): 80 mg/kg
ALB (Albumin), Mean [1, 2]: 2.67 g/dL
ALT (Alanine aminotransferase), Mean [1, 2]: 43.72 U/L
AST (Aspartate Aminotransferase), Mean [1, 2]: 91.88 U/L
BT (Total Bilirubin), Mean [1, 2]: 0.39 mg/dL
CA (Calcium), Mean [1, 2]: 9.77 mg/dL
CRE (Creatinine), Mean [1, 2]: 0.29 mg/dL
CT (Total cholesterol), Mean [1, 2]: 98.17 mg/dL
FA (Alkaline phosphatase), Mean [1, 2]: 108.75 U/L
GGT (Gamma-glutamyltransferase), Mean [1, 2]: 0.00 U/L
GLUCOSE, Mean [1, 2]: 118.56 mg/dL
P (Phosphorus), Mean [1, 2]: 4.69 mg/dL
PT (Total protein), Mean [1, 2]: 5.84 g/dL
TRI (Triglycerides), Mean [1, 2]: 62.00 mg/dL
UREIA, Mean [1, 2]: 54.93 mg/dL
ALB (Albumin), Mean [1, 3]: 2.91 g/dL
ALT (Alanine aminotransferase), Mean [1, 3]: 52.50 U/L
AST (Aspartate Aminotransferase), Mean [1, 3]: 119.73 U/L
BT (Total Bilirubin), Mean [1, 3]: 0.41 mg/dL
CA (Calcium), Mean [1, 3]: 8.34 mg/dL
CRE (Creatinine), Mean [1, 3]: 0.25 mg/dL
CT (Total cholesterol), Mean [1, 3]: 119.86 mg/dL
FA (Alkaline phosphatase), Mean [1, 3]: 77.20 U/L
GGT (Gamma-glutamyltransferase), Mean [1, 3]: 0.00 U/L
GLUCOSE, Mean [1, 3]: 138.04 mg/dL
P (Phosphorus), Mean [1, 3]: 5.47 mg/dL
PT (Total protein), Mean [1, 3]: 5.99 g/dL
TRI (Triglycerides), Mean [1, 3]: 92.90 mg/dL
UREIA, Mean [1, 3]: 44.12 mg/dL
ALB (Albumin), Mean [1, 4]: 3.29 g/dL
ALT (Alanine aminotransferase), Mean [1, 4]: 44.84 U/L
AST (Aspartate Aminotransferase), Mean [1, 4]: 127.67 U/L
BT (Total Bilirubin), Mean [1, 4]: 0.34 mg/dL
CA (Calcium), Mean [1, 4]: 10.26 mg/dL
CRE (Creatinine), Mean [1, 4]: 0.30 mg/dL
CT (Total cholesterol), Mean [1, 4]: 126.67 mg/dL
FA (Alkaline phosphatase), Mean [1, 4]: 80.40 U/L
GGT (Gamma-glutamyltransferase), Mean [1, 4]: 0.20 U/L
GLUCOSE, Mean [1, 4]: 135.84 mg/dL
P (Phosphorus), Mean [1, 4]: 5.44 mg/dL
PT (Total protein), Mean [1, 4]: 6.79 g/dL
TRI (Triglycerides), Mean [1, 4]: 108.33 mg/dL
UREIA, Mean [1, 4]: 73.50 mg/dL
HCT [1, 5]: 40.60%
HGB [1, 5]: 13.58 g/dL
MCH [1, 5]: 17.51 pg
MCHC [1, 5]: 31.74 g/dL
MCV [1, 5]: 52.32 fL
PLT [1, 5]: 1.07322e+06 µL⁻¹
RBC [1, 5]: 7.76e+06 µL⁻¹
W-LCR [1, 5]: 36.41%
W-MCR [1, 5]: 5.03%
W-SCR [1, 5]: 57.60%
WBC [1, 5]: 1700 µL⁻¹
HCT [1, 6]: 39.78%
HGB [1, 6]: 13.31 g/dL
MCH [1, 6]: 17.50 pg
MCHC [1, 6]: 33.47 g/dL
MCV [1, 6]: 52.32 fL
PLT [1, 6]: 918000 µL⁻¹
RBC [1, 6]: 7.61e+06 µL⁻¹
W-LCR [1, 6]: 21.77%
W-MCR [1, 6]: 2.77%
W-SCR [1, 6]: 74.94 * %
WBC [1, 6]: 3590 µL⁻¹
HCT [1, 7]: 40.70%
HGB [1, 7]: 13.27 g/dL
MCH [1, 7]: 17.46 pg
MCHC [1, 7]: 33.03 g/dL
MCV [1, 7]: 52.80 fL
PLT [1, 7]: 780330 µL⁻¹
RBC [1, 7]: 7.61e+06 µL⁻¹
W-LCR [1, 7]: 22.91%
W-MCR [1, 7]: 3.10%
W-SCR [1, 7]: 73.06%
WBC [1, 7]: 4.88* ×10^3/μL
ALT [1, 8]: 43.99 U/L
AST [1, 8]: 105.30 U/L
BT [1, 8]: 0.67 mg/dL
CA [1, 8]: 9.91 mg/dL
CRE [1, 8]: 0.37 mg/dL
CT [1, 8]: 137.00 mg/dL
FA [1, 8]: 103.67 U/L
GGT [1, 8]: 2.33 U/L
GLUCOSE [1, 8]: 127.41 mg/dL
HCT [1, 8]: 38.33%
HGB [1, 8]: 12.51 g/dL
MCH [1, 8]: 17.12 pg
MCHC [1, 8]: 32.69 g/dL
MCV [1, 8]: 52.46 fL
PLT [1, 8]: 971900 µL⁻¹
PT [1, 8]: 5.56 g/dL
RBC [1, 8]: 7.3e+06 µL⁻¹
TRI [1, 8]: 94.50 mg/dL
UREIA [1, 8]: 60.48 mg/dL
W-LCR [1, 8]: 40.81 * %
W-MCR [1, 8]: 5.41%
W-SCR [1, 8]: 51.88 * %
WBC [1, 8]: 1610 µL⁻¹
ALT [1, 9]: 69.54 U/L
AST [1, 9]: 134.48 U/L
BT [1, 9]: 0.25 mg/dL
CA [1, 9]: 9.76 mg/dL
CRE [1, 9]: 0.28 mg/dL
CT [1, 9]: 154.56 mg/dL
FA [1, 9]: 69.67 U/L
GGT [1, 9]: 0.00 U/L
GLUCOSE [1, 9]: 129.24 mg/dL
HCT [1, 9]: 38.59%
HGB [1, 9]: 12.64 g/dL
MCH [1, 9]: 17.34 pg
MCHC [1, 9]: 32.76 g/dL
MCV [1, 9]: 53.00 fL
PLT [1, 9]: 1.03444e+06 µL⁻¹
PT [1, 9]: 5.74 g/dL
RBC [1, 9]: 7.28e+06 µL⁻¹
TRI [1, 9]: 116.7 mg/dL
UREIA [1, 9]: 30.02 * mg/dL
W-LCR [1, 9]: 16.37 * %
W-MCR [1, 9]: 3.36 * %
W-SCR [1, 9]: 79.52 * %
WBC [1, 9]: 4700 µL⁻¹
ALT [1, 10]: 57.17 U/L
AST [1, 10]: 124.78 U/L
BT [1, 10]: 0.43 mg/dL
CA [1, 10]: 10.38 mg/dL
CRE [1, 10]: 0.31 mg/dL
CT [1, 10]: 183.56 mg/dL
FA [1, 10]: 85.88 U/L
GGT [1, 10]: 0.50 U/L
GLUCOSE [1, 10]: 105.23 mg/dL
HCT [1, 10]: 40.41%
HGB [1, 10]: 13.26 g/dL
MCH [1, 10]: 17.03 pg
MCHC [1, 10]: 32.80 g/dL
MCV [1, 10]: 51.91 fL
PLT [1, 10]: 1.05633e+06 µL⁻¹
PT [1, 10]: 5.22 g/dL
RBC [1, 10]: 7.79e+06 µL⁻¹
TRI [1, 10]: 84.90 mg/dL
UREIA [1, 10]: 74.16 mg/dL
W-LCR [1, 10]: 20.89 * %
W-MCR [1, 10]: 4.17%
W-SCR [1, 10]: 74.40* %
WBC [1, 10]: 4110 µL⁻¹
histopathology, kidneys ([1]; mice, both sexes, 250 mg/kg): areas of basophilic proximal tubules and tubular dilatation
ophthalmological health ([1]; mice, either sex, 250 mg/kg): No changes
biochemical and hematological parameters ([1]; mice, male and female, 28 days, main groups): slight changes
histopathology, kidneys ([1]; mice, 10 mg/kg and 80 mg/kg, recovery group): not observed
macroscopic evaluation at necropsy ([1]; mice, 28 days): did not reveal significant changes
urine parameters (volume, specific gravity, pH, protein) ([1]; mice, 28 days, main groups): No significant changes
body weight (SARS-COV-2 VoC gamma; [11]): sustain their masses beyond the threshold of euthanasia
overall clinical scores (SARS-COV-2 VoC gamma; [11]): improved
virus RNA levels in the lungs (SARS-COV-2 VoC gamma; 140 mg/kg/day with or without DTG): did not alter
infectious titers (SARS-COV-2 VoC gamma; 140 mg/kg/day with or without DTG, BAL): decreased significantly
IL-6 in BAL (SARS-COV-2 VoC gamma; [12]): reduced
KC in BAL (SARS-COV-2 VoC gamma; [12]): reduced
TNF-α in BAL (SARS-COV-2 VoC gamma; [12]): reduced
inflammatory cells counts in BAL (SARS-COV-2 VoC gamma; [12]): reduced
survival (SARS-COV-2 VoC gamma; 70 mg/kg/day oral with DTG): Higher survival rates
survival (SARS-COV-2 VoC gamma; 140 mg/kg/day oral, combined or not with DTG): Higher survival rates
lung necrosis (SARS-COV-2 VoC gamma; alone or combined with DTG): reduced
levels of N6-furfuryladenine in viral RNA vs isotype control and nil-treated cells (SARS-COV-2 viral RNA): more than 10 fold
